# Like-named read-outs stand apart in the source and are kept apart here.
# T1: NPY Y5 receptor (Homo sapiens, UniProt Q15761)
# T1 construct: host or cells: unnamed cell line expressing the receptor
# T1 sequence (Q15761 1-445): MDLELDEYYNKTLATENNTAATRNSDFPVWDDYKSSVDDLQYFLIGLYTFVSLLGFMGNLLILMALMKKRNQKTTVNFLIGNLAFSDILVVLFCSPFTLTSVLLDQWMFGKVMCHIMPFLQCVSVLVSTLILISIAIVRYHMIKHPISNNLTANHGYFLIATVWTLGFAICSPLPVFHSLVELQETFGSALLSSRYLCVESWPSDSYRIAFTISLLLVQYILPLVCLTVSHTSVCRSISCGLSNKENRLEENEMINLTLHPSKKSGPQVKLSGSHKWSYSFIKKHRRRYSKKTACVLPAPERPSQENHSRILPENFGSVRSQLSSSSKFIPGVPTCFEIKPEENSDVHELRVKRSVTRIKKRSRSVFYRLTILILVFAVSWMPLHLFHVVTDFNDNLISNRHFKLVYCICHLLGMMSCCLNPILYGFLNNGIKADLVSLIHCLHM
# T2: NPY Y2 receptor (Homo sapiens, UniProt P49146)
# T2 construct: host or cells: unnamed cell line expressing the receptor
# T2 sequence (P49146 1-381): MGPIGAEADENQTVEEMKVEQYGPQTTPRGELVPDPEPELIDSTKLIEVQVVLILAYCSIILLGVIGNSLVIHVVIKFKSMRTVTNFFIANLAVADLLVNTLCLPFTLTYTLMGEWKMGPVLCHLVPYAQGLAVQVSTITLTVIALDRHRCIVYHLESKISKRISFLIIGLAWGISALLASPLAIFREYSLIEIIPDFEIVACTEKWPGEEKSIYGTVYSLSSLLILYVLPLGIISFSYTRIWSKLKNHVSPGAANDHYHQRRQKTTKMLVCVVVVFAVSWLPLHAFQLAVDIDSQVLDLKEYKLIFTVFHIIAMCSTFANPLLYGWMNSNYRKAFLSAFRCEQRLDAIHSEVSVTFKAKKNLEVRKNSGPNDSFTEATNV
# Key:
# [1] = tested on: GABAergic IPSCs onto POMC neurons; experiment: GABAergic inhibitory postsynaptic currents (IPSCs) recorded in POMC neurons of hypothalamic slices; format: cell-based, mouse
# [2] = tested on: POMC neurons; experiment: Whole cell recordings of membrane potential, currents and action potentials in EGFP-labeled POMC neurons of hypothalamic (ARC) slices; format: cell-based, mouse
# [3] = Food intake after injection into the paraventricular nucleus (PVN) of fasted rats; format: in vivo, rat
# Experimental: (§1) Animals: Male Wistar rats (200-250 g), 7-8 weeks old (Charles River Laboratories, United Kingdom) were maintained under controlled temperature (21-23° C.) and light conditions (lights on 07:00-19:00) with ad libitum access to water and food (RM1 diet; SDS Ltd., Witham, United Kingdom) except where stated. Arcuate and paraventricular nuclei cannulations and injections were performed as previously described (Glaum et al., Mol. Pharmacol. 50, 230-5, 1996; Lee et al., J. Physiol (Lond) 515, 439-52; 1999; Shiraishi et al., Nutrition 15, 576-9, 1999). Correct intranuclear cannula placement was confirmed histologically at the end of each study period (Glaum et al., Mol. Pharmacol. 50, 230-5, 1996; Lee et al., J. Physiol (Lond) 515, 439-52, 1999; Shiraishi et al., Nutrition 15, 576-9, 1999). All animal procedures were approved under the British Home Office Animals (Scientific Procedures) Act, 1986. All injection studies on fasting animals were performed in the early light-phase (0800-0900). All dark-phase feeding studies injections were performed just prior to lights off.
# [4] = tested on: NPY and α-MSH release from hypothalamic explants; experiment: Neuropeptide release from hypothalamic explants (RIA); format: cell-based, rat; settings: 50 nM
# Experimental: Hypothalamic explants: Male Wistar rats were killed by decapitation and the whole brain immediately removed, mounted with the ventral surface uppermost and placed in a vibrating microtome (Biorad, Microfield Scientific Ltd., Devon, UK). A 1.7 mm slice was taken from the base of the brain to include the PVN and the ARC and immediately transferred to 1 ml of artificial CSF (aCSF) (Kim et al., J. Clin. Invest. 105, 1005-11, 2000) equilibrated with 95% O2 and 5% CO2 and maintained at 37° C. After an initial 2-hour equilibration period, with aCSF replaced every 60 minutes, the hypothalami were then incubated for 45 minutes in 600 μl aCSF (basal period) before being exposed to the Y2A […] in 600 μl aCSF. Finally, the viability of the tissue was verified by a 45 minute exposure to 56 mM KCL; isotonicity was maintained by substituting K^+ for Na^+.
# [5] = Food intake after injection into the arcuate nucleus of fasted rats; format: in vivo, rat; settings: rats fasted 24 hours
# Experimental: as §1, with “Arcuate” for “Animals: Male Wistar rats (200-250 g), 7-8 weeks old (Charles River Laboratories, United Kingdom) were maintained under controlled temperature (21-23° C.) and light conditions (lights on 07:00-19:00) with ad libitum access to water and food (RM1 diet; SDS Ltd., Witham, United Kingdom) except where stated. Arcuate”
# [6] = target: T1, NPY Y5 receptor; experiment: Receptor-binding studies on cell lines expressing NPY Y5 receptor
# [7] = target: NPY Y1 receptor (Homo sapiens, UniProt P25929); experiment: biochemical; format: binding
# Sequence of NPY Y1 receptor (P25929 whole entry): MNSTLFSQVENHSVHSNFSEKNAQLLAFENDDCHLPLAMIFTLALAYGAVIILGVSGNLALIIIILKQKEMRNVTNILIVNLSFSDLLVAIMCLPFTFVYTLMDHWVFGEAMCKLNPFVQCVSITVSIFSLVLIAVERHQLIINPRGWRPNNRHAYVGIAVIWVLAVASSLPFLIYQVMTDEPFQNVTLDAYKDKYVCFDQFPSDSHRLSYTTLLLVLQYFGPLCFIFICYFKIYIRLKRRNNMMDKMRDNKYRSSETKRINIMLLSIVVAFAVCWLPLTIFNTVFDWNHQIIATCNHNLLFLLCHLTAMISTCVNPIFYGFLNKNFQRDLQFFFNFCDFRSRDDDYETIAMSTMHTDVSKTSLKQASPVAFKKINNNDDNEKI
# [8] = target: T2, NPY Y2 receptor; experiment: Receptor-binding studies on cell lines expressing NPY Y2 receptor
# [9] = tested on: non-POMC neurons in the arcuate nucleus; experiment: Recordings from non-fluorescent (non-POMC) neurons in the arcuate nucleus; format: cell-based, mouse; settings: 13 cells tested; hyperpolarized 5, depolarized 3
molecule,measurement,setting,value
"NC1=N[C@H](O)[C@H]2[C@H]3O[C@]4(O)O[C@@H]([C@@H](O)[C@@]2(N1)[C@@H]4O)[C@]3(O)CO [TTX, tetrodotoxin]",effect on large amplitude IPSCs,[1],abolished large IPSCs
"Ac-LRHYLNLLTRQRY-NH2 (C-terminus assumed) [Y2A, N-acetyl (Leu^28, Leu^31) NPY (24-36)]",depolarization of POMC neurons,"[2]; whole cell, PYY3-36 n=22, Y2A n=9",8.7±1.8 mV
same,reduction of frequency of IPSCs onto POMC neurons,[1],44.4±9.3%
same,food intake after PVN injection,"[3]; 100 fmol-1 nmol, rats fasted 24 hours",no alteration of food intake
same,food intake 2 hour post-injection,"[3]; PVN, 0.1 nmol, n=8",8.0 ± 0.6 g
same,α-MSH release from hypothalamic explants,[4]; 45 minutes (FIG. 8e),concomitant increase in α-MSH release
same,NPY release from hypothalamic explants,[4]; 45 minutes (FIG. 8d),significantly decreased NPY release
same,"food intake after intra-arcuate injection, dose dependence",[5]; 100 fmol-1 nmol,inhibited food intake
same,chow ingested 2 hours post-injection,"[5]; intra-arcuate, 0.1 μmol, n=8",6.2 ± 0.5 g
"Ac-LRHYLNLLTRQRY-NH2 [Y2A, N-acetyl (Leu^28, Leu^31) NPY (24-36)]",IC50,[6],> 5000 nM
same,IC50,[7],> 5000 nM
same,IC50,[8],1.3 ± 0.2 nM
CTAP,effect on the current induced by Met-Enk in POMC cells,[2],completely prevented the current induced by Met-Enk
D-Trp^8-γMSH,frequency of action potentials,[2]; 7 nM,decreased the frequency of action potentials
NPY,IPSCs in the presence of tetrodotoxin (TTX),[1],still inhibited IPSCs
same,decrease of frequency of GABAergic IPSCs,[1],55%
same,time to decrease of IPSC frequency,[1]; 100 nM,≤ 3 min
met-enkephalin,spontaneous action potential generation,[2]; 30 μM,prevented spontaneous action potential generation
same,time to hyperpolarization (rapid),[2]; 30 μM,35 to 40 s
same,reversal-potential of the inwardly-rectifying opioid current,"[2]; 6.5 mM K+ Krebs, n=3",approximately −60 mV
picrotoxin,effect on IPSCs,[1]; 100 μM,blocked all IPSCs
"leptin: leptin applied to identified POMC cells in slice preparations (protein, UniProt P41160 22-167, looked up) Leptin: VPIQKVQDDTKTLIKTIVTRINDISHTQSVSAKQRVTGLDFIPGLHPILSLSKMDQTLAVYQQVLTSLPSQNVLQIANDLENLRDLLHLLAFSKSCSLPQTSGLQKPESLDGVLEASLYSTEVVALSRLQGSLQDILQQLDVSPEC",reversal of the small inward current,[2]; 100 nM,approximately −20 mV
same,mean±SEM depolarization,"[2]; 100 nM, n=45",9.7±1.2 mV
same,time to depolarization,[2]; 0.1-100 nM,2 to 10 min
same,depolarization of POMC cells,"[2]; 0.1-100 nM, 72 of 77 cells",3-30 mV
same,EC50,[2]; read-out: EC50 of concentration dependent depolarization of POMC cells,5.9 nM
same,effect on adjacent non-fluorescent ARC cells,[9],no effect on 5 of 13 adjacent non-fluorescent cells tested
same,IPSCs in the presence of tetrodotoxin (TTX),[1],still inhibited IPSCs
same,decrease of frequency of GABAergic IPSCs,[1]; 100 nM (leptin: 5 out of 15 cells; NPY: all 12 cells),25%

# From US8217001B2, “Modification of feeding behavior” (Imperial Innovations Limited, priority 2001, dated 2012)
